Our source for the Activity values is ChEMBL document CHEMBL5634117 (Eur J Med Chem, 2023).

In assay [1] the test system is K562. Briefly: Induction of apoptosis in human K562 cells assessed as late apoptotic cells at 2.56 uM incubated for 24 hrs by annexinV and propidium iodide staining based flow cytometry analysis (reference value: 0.82%). The class given is functional.
The test system of assay [2] is K562. Briefly: Induction of apoptosis in human K562 cells assessed as late apoptotic cells at 1.28 uM incubated for 24 hrs by annexinV and propidium iodide staining based flow cytometry analysis (reference value: 0.82%). It counts as functional.
Assay [3] concerns K562. Briefly: Induction of apoptosis in human K562 cells assessed as late apoptotic cells at 0.64 uM incubated for 24 hrs by annexinV and propidium iodide staining based flow cytometry analysis (reference value: 0.82%). It counts as functional.
Assay [4] concerns K562. Briefly: Induction of cell cycle arrest in human K562 cells assessed as accumulation of cells at S phase at 0.64 uM measured after 24 hrs by PI staining based flow cytometry analysis (reference value: 24.75%). It counts as functional.
Assay [5] has as its system K562. Briefly: Induction of autophagy in human K562 cells assessed as increase in beclin-1 level at 1.28 uM measured after 24 hrs by Western blotting analysis. It counts as functional, cell-based.
Assay [6] deals with K562. As to the kind of experiment: Induction of cell cycle arrest in human K562 cells assessed as accumulation of cells at G2/M phase at 0.64 uM measured after 24 hrs by PI staining based flow cytometry analysis (reference value: 25.62%). The class given is functional.
Assay [7] has as its system K562. Briefly: Induction of cell cycle arrest in human K562 cells assessed as accumulation of cells at G0/G1 phase at 2.56 uM measured after 24 hrs by PI staining based flow cytometry analysis (reference value: 46.72%). It counts as functional.
In assay [8] the test system is K562. Briefly: Induction of cell cycle arrest in human K562 cells assessed as accumulation of cells at SubG1 phase at 0.64 uM measured after 24 hrs by PI staining based flow cytometry analysis (reference value: 2.21%). It counts as functional.
For assay [9], the system named is K562. As to the kind of experiment: Induction of apoptosis in human K562 cells assessed as early apoptotic cells at 1.28 uM incubated for 24 hrs by annexinV and propidium iodide staining based flow cytometry analysis (reference value: 1.17%). It counts as functional.
Assay [10] concerns K562. Briefly: Induction of cell cycle arrest in human K562 cells assessed as accumulation of cells at G2/M phase at 2.56 uM measured after 24 hrs by PI staining based flow cytometry analysis (reference value: 25.62%). It counts as functional.
Assay [11] concerns K562. Briefly: Induction of cell cycle arrest in human K562 cells assessed as accumulation of cells at S phase at 1.28 uM measured after 24 hrs by PI staining based flow cytometry analysis (reference value: 24.75%). The class given is functional.
The subject of assay [12] is K562. As to the kind of experiment: Induction of cell cycle arrest in human K562 cells assessed as accumulation of cells at S phase at 2.56 uM measured after 24 hrs by PI staining based flow cytometry analysis (reference value: 24.75%). It counts as functional.
Assay [13] relates to K562. Briefly: Induction of cell cycle arrest in human K562 cells assessed as accumulation of cells at G2/M phase at 0.64 uM measured after 24 hrs by PI staining based flow cytometry analysis (reference value: 29.09%). It counts as functional.
Assay [14] concerns K562. Briefly: Induction of apoptosis in human K562 cells assessed as early apoptotic cells at 0.64 uM incubated for 24 hrs by annexinV and propidium iodide staining based flow cytometry analysis (reference value: 0.42%). The class given is functional.
In assay [15] the test system is K562. As to the kind of experiment: Induction of apoptosis in human K562 cells assessed as late apoptotic cells at 1.28 uM incubated for 24 hrs by annexinV and propidium iodide staining based flow cytometry analysis (reference value: 1.34%). The class given is functional.
In assay [16] the test system is K562. Briefly: Induction of cell cycle arrest in human K562 cells assessed as accumulation of cells at SubG1 phase at 2.56 uM measured after 24 hrs by PI staining based flow cytometry analysis (reference value: 2.48%). The class given is functional.
Assay [17] concerns K562. Briefly: Induction of cell cycle arrest in human K562 cells assessed as accumulation of cells at G0/G1 phase at 1.28 uM measured after 24 hrs by PI staining based flow cytometry analysis (reference value: 46.71%). The class given is functional.
The test system of assay [18] is K562. Briefly: Induction of apoptosis in human K562 cells assessed as late apoptotic cells at 1.25 uM incubated for 24 hrs by annexinV and propidium iodide staining based flow cytometry analysis (reference value: 1.34%). The class given is functional.
In assay [19] the test system is K562. As to the kind of experiment: Induction of apoptosis in human K562 cells assessed as early apoptotic cells at 1.25 uM incubated for 24 hrs by annexinV and propidium iodide staining based flow cytometry analysis (reference value: 0.42%). The class given is functional.
Assay [20] has as its system K562. Briefly: Induction of cell cycle arrest in human K562 cells assessed as accumulation of cells at S phase at 1.28 uM measured after 24 hrs by PI staining based flow cytometry analysis (reference value: 21.74%). It counts as functional.
In assay [21] the test system is K562. Briefly: Induction of apoptosis in human K562 cells assessed as early apoptotic cells at 1.28 uM incubated for 24 hrs by annexinV and propidium iodide staining based flow cytometry analysis (reference value: 0.42%). It counts as functional.
In assay [22] the test system is K562. As to the kind of experiment: Induction of cell cycle arrest in human K562 cells assessed as accumulation of cells at SubG1 phase at 5 uM measured after 24 hrs by PI staining based flow cytometry analysis (reference value: 3.43%). The class given is functional.
The test system of assay [23] is K562. Briefly: Induction of apoptosis in human K562 cells assessed as late apoptotic cells at 2.5 uM incubated for 24 hrs by annexinV and propidium iodide staining based flow cytometry analysis (reference value: 1.34%). It counts as functional.
Assay [24] concerns K562. As to the kind of experiment: Induction of apoptosis in human K562 cells assessed as early apoptotic cells at 5 uM incubated for 24 hrs by annexinV and propidium iodide staining based flow cytometry analysis (reference value: 0.42%). It counts as functional.
Assay [25] deals with K562. As to the kind of experiment: Induction of apoptosis in human K562 cells assessed as early apoptotic cells at 2.56 uM incubated for 24 hrs by annexinV and propidium iodide staining based flow cytometry analysis (reference value: 0.42%). It counts as functional.
Assay [26] has as its system K562. Briefly: Induction of cell cycle arrest in human K562 cells assessed as accumulation of cells at S phase at 5 uM measured after 24 hrs by PI staining based flow cytometry analysis (reference value: 20.42%). It counts as functional.
Assay [27] relates to K562. As to the kind of experiment: Induction of cell cycle arrest in human K562 cells assessed as accumulation of cells at G2/M phase at 2.5 uM measured after 24 hrs by PI staining based flow cytometry analysis (reference value: 29.44%). It counts as functional.
Assay [28] deals with K562. As to the kind of experiment: Induction of cell cycle arrest in human K562 cells assessed as accumulation of cells at S phase at 2.5 uM measured after 24 hrs by PI staining based flow cytometry analysis (reference value: 20.42%). The class given is functional.
Assay [29] concerns K562. Briefly: Induction of cell cycle arrest in human K562 cells assessed as accumulation of cells at G0/G1 phase at 2.5 uM measured after 24 hrs by PI staining based flow cytometry analysis (reference value: 46.67%). The class given is functional.
Assay [30] concerns K562. As to the kind of experiment: Induction of apoptosis in human K562 cells assessed as early apoptotic cells at 2.5 uM incubated for 24 hrs by annexinV and propidium iodide staining based flow cytometry analysis (reference value: 0.42%). It counts as functional.
The test system of assay [31] is K562. Briefly: Induction of cell cycle arrest in human K562 cells assessed as accumulation of cells at G0/G1 phase at 2.56 uM measured after 24 hrs by PI staining based flow cytometry analysis (reference value: 46.71%). It counts as functional.
For assay [32], the system named is K562. As to the kind of experiment: Induction of cell cycle arrest in human K562 cells assessed as accumulation of cells at S phase at 0.64 uM measured after 24 hrs by PI staining based flow cytometry analysis (reference value: 21.74%). It counts as functional.

The structures appear in SMILES notation. Calls of active or inactive are those of the source. No cut-off for these calls is given here.

As to `CC(C)(C)n1cc(-c2ccnc(NCCCNS(=O)(=O)c3ccc(Cl)cc3)c2)c(-c2cccc(O)c2)n1`, the Activity amounted to 0.37% in [1]; 0.56% in assay [2]; 0.48% in assay [3]; 30.99% in [4]; 51.01% in [6]; 0.17% in assay [7]. Moreover, the Activity in assay [8] is 2.16%; in assay [9] it was 1.94%; in [10], 94.29%; in assay [11], 32.68%; in [12], 4.89%. Moreover, in [5], the outcome was Active.
Turning to `O=C1c2ccccc2-c2n[nH]c3cccc1c23`, the Activity in assay [13] came out at 48.84%; in [14], 1.59%; in assay [15], 1.25%; in assay [16], 2.85%; in assay [17], 28.15%; in assay [18] it was 1.47%. Also, the Activity in assay [19] amounted to 0.72%; in assay [20], 16.61%; in assay [21], 0.66%; in assay [22], 4.01%; in assay [23], 3.86%; in assay [24], 1.5%. In addition, the Activity was 1.05% in assay [25]; 20.04% in [26]; 45.34% in assay [27]; 19.27% in assay [28]; 30.88% in assay [29]; 1.17% in [30]. For the same compound, the Activity in [31] is given as 37.63%; in [32], 18.56%.
